± gives the uncertainty stated by the source.
Test: xn = mol fraction of the nth substance listed
Conditions: for electrical conductivity: frequency 0.0005 MHz

CCCCCCCCOS(=O)(=O)[O-].CC[n+]1ccn(C)c1 + O + O=S(=O)([O-])[O-].[Li+].[Li+]
101 kPa, x2 = 0.8284, x3 = 0.003275
Conditions | electrical conductivity [S/m] | viscosity [mPa·s]
283.15 K | 0.479 ± 0.029 | –
285.15 K | 0.518 ± 0.031 | –
287.15 K | 0.561 ± 0.034 | –
288.15 K | 0.582 ± 0.035 | –
289.15 K | 0.605 ± 0.037 | –
291.15 K | 0.649 ± 0.039 | –
293.15 K | 0.698 ± 0.042 | 101 ± 2.4
296.15 K | – | 85.2 ± 1.9
298.15 K | 0.83 ± 0.05 | 76.4 ± 1.7
303.15 K | 0.975 ± 0.059 | 58.9 ± 1.3
308.15 K | – | 46.1 ± 1
313.15 K | 1.31 ± 0.079 | –
318.15 K | – | 29.59 ± 0.65
323.15 K | 1.68 ± 0.1 | –
328.15 K | – | 19.97 ± 0.44
333.15 K | 2.1 ± 0.13 | –
338.15 K | – | 14.04 ± 0.31
343.15 K | 2.62 ± 0.16 | –
348.15 K | 2.87 ± 0.17 | –
358.15 K | 3.41 ± 0.2 | –
363.15 K | 3.68 ± 0.22 | –

CCCCCC[n+]1ccn(C)c1.[Br-] + CC(=O)Oc1ccccc1C(=O)O + CC#N
viscosity [mPa·s], 101 kPa
Conditions | 288.15 K | 298.15 K | 308.15 K | 318.15 K
x2 = 0, x1 = 0.004174 | 0.403 ± 0.009 | 0.364 ± 0.008 | 0.333 ± 0.007 | 0.306 ± 0.007
x2 = 0, x1 = 0.008131 | 0.424 ± 0.009 | 0.383 ± 0.008 | 0.35 ± 0.008 | 0.322 ± 0.007
x2 = 0, x1 = 0.01172 | 0.424 ± 0.009 | 0.389 ± 0.008 | 0.371 ± 0.008 | 0.342 ± 0.007

CCCCCC[n+]1ccn(C)c1.O=S(=O)([N-]S(=O)(=O)C(F)(F)F)C(F)(F)F + CN(CCO)CCO
101 kPa
Conditions | viscosity [mPa·s]
303.15 K, x2 = 0 | 58.3 ± 2
303.15 K, x2 = 0.801 | 49.3 ± 2.5
308.15 K, x2 = 0.0989 | 45.6 ± 2.3
308.15 K, x2 = 0.3999 | 34 ± 1.7
313.15 K, x2 = 0.3999 | 31.4 ± 1.6
313.15 K, x2 = 0.6075 | 30 ± 1.5
313.15 K, x2 = 0.899 | 36.2 ± 1.9
318.15 K, x2 = 0.7049 | 25.3 ± 1.3
323.15 K, x2 = 0.2977 | 24.1 ± 1.2
323.15 K, x2 = 0.7049 | 22.9 ± 1.2

CCCCCC[n+]1ccn(C)c1.[Br-] + OC[C@H]1O[C@@](CO)(O[C@H]2O[C@H](CO)[C@@H](O)[C@H](O)[C@H]2O)[C@@H](O)[C@@H]1O + O
viscosity [mPa·s], 100 kPa
Conditions | 288.15 K | 298.15 K | 308.15 K | 318.15 K
x2 = 0.0009263, x1 = 0.001797 | 1.271 ± 0.027 | 0.986 ± 0.021 | 0.785 ± 0.017 | 0.651 ± 0.014
x2 = 0.000945, x1 = 0.003588 | 1.33 ± 0.03 | 1.022 ± 0.022 | 0.827 ± 0.018 | 0.683 ± 0.015
x2 = 0.001856, x1 = 0.001795 | 1.334 ± 0.028 | 1.034 ± 0.022 | 0.826 ± 0.018 | 0.681 ± 0.015
x2 = 0.001901, x1 = 0.003584 | 1.403 ± 0.03 | 1.07 ± 0.02 | 0.87 ± 0.02 | 0.711 ± 0.015
x2 = 0.001946, x1 = 0.005366 | 1.495 ± 0.032 | 1.142 ± 0.024 | 0.891 ± 0.019 | 0.74 ± 0.02
x2 = 0.002732, x1 = 0.001794 | 1.394 ± 0.03 | 1.074 ± 0.023 | 0.859 ± 0.018 | 0.711 ± 0.015
x2 = 0.002803, x1 = 0.003581 | 1.468 ± 0.031 | 1.123 ± 0.024 | 0.904 ± 0.019 | 0.74 ± 0.02
x2 = 0.002858, x1 = 0.005362 | 1.568 ± 0.033 | 1.191 ± 0.025 | 0.949 ± 0.02 | 0.78 ± 0.02
x2 = 0.003653, x1 = 0.001792 | 1.453 ± 0.031 | 1.124 ± 0.024 | 0.897 ± 0.019 | 0.735 ± 0.016
x2 = 0.003711, x1 = 0.003578 | 1.538 ± 0.033 | 1.173 ± 0.025 | 0.941 ± 0.02 | 0.775 ± 0.017
x2 = 0.003775, x1 = 0.005357 | 1.637 ± 0.035 | 1.245 ± 0.026 | 0.99 ± 0.02 | 0.807 ± 0.017
x2 = 0.004453, x1 = 0.003575 | 1.596 ± 0.034 | 1.222 ± 0.026 | 0.975 ± 0.021 | 0.805 ± 0.017
x2 = 0.004552, x1 = 0.005352 | 1.699 ± 0.036 | 1.293 ± 0.027 | 1.023 ± 0.022 | 0.834 ± 0.018
x2 = 0.005421, x1 = 0.001789 | 1.601 ± 0.034 | 1.229 ± 0.026 | 0.975 ± 0.021 | 0.793 ± 0.017
x2 = 0.005541, x1 = 0.003571 | 1.672 ± 0.035 | 1.287 ± 0.027 | 1.018 ± 0.022 | 0.835 ± 0.018
x2 = 0.005596, x1 = 0.005347 | 1.794 ± 0.038 | 1.365 ± 0.029 | 1.078 ± 0.023 | 0.875 ± 0.019
x2 = 0.006166, x1 = 0.001788 | 1.649 ± 0.035 | 1.272 ± 0.027 | 1.01 ± 0.02 | 0.82 ± 0.02
x2 = 0.006277, x1 = 0.003569 | 1.745 ± 0.037 | 1.342 ± 0.028 | 1.061 ± 0.023 | 0.868 ± 0.018
x2 = 0.006372, x1 = 0.005343 | 1.862 ± 0.039 | 1.416 ± 0.03 | 1.114 ± 0.024 | 0.906 ± 0.019
x2 = 0.007317, x1 = 0.001786 | 1.761 ± 0.037 | 1.347 ± 0.029 | 1.059 ± 0.023 | 0.863 ± 0.018
x2 = 0.007401, x1 = 0.005337 | 1.984 ± 0.042 | 1.498 ± 0.032 | 1.184 ± 0.025 | 0.952 ± 0.02
x2 = 0.007611, x1 = 0.003564 | 1.874 ± 0.04 | 1.438 ± 0.03 | 1.13 ± 0.02 | 0.917 ± 0.02
x2 = 0.00788, x1 = 0.001785 | 1.826 ± 0.039 | 1.395 ± 0.03 | 1.088 ± 0.023 | 0.894 ± 0.019
x2 = 0.008047, x1 = 0.003562 | 1.908 ± 0.04 | 1.463 ± 0.031 | 1.152 ± 0.024 | 0.928 ± 0.02
x2 = 0.008846, x1 = 0.005329 | 2.121 ± 0.045 | 1.595 ± 0.034 | 1.25 ± 0.03 | 1.009 ± 0.021

CC[n+]1ccn(CCOC)c1.O=S(=O)([O-])C(F)(F)F + CC(C)O
viscosity [mPa·s], 101 kPa
Conditions | x1 = 0.0997 | x1 = 0.2004 | x1 = 0.3004 | x1 = 0.4003 | x1 = 0.5004 | x1 = 0.601 | x1 = 0.7 | x1 = 0.8 | x1 = 0.9 | x1 = 1
288.15 K | 4.72 ± 0.11 | 7.33 ± 0.2 | 10.86 ± 0.36 | 16.19 ± 0.57 | 21.8 ± 1 | 33.6 ± 1.3 | 47.3 ± 1.4 | 64.2 ± 1.8 | 85.2 ± 2.6 | 121 ± 4.5
293.15 K | 4.047 ± 0.094 | 6.23 ± 0.17 | 9.17 ± 0.3 | 13.53 ± 0.47 | 18.15 ± 0.81 | 27.6 ± 1 | 38 ± 1.1 | 51.3 ± 1.3 | 65.2 ± 1.7 | 92.5 ± 2.9
298.15 K | 3.489 ± 0.081 | 5.36 ± 0.14 | 7.83 ± 0.25 | 11.45 ± 0.39 | 15.16 ± 0.67 | 22.88 ± 0.83 | 31.09 ± 0.93 | 41.4 ± 1.1 | 52.2 ± 1.3 | 72.5 ± 2
303.15 K | 3.03 ± 0.071 | 4.64 ± 0.12 | 6.75 ± 0.21 | 9.8 ± 0.33 | 12.85 ± 0.55 | 19.27 ± 0.68 | 25.81 ± 0.76 | 33.89 ± 0.9 | 42.7 ± 1.1 | 57.9 ± 1.5
308.15 K | 2.654 ± 0.062 | 4.06 ± 0.11 | 5.87 ± 0.18 | 8.47 ± 0.28 | 11.07 ± 0.48 | 16.64 ± 0.57 | 21.71 ± 0.62 | 28.27 ± 0.75 | 35.58 ± 0.92 | 47.3 ± 1.2
313.15 K | 2.336 ± 0.055 | 3.599 ± 0.096 | 5.15 ± 0.16 | 7.38 ± 0.24 | 9.64 ± 0.41 | 14.32 ± 0.49 | 18.62 ± 0.53 | 23.79 ± 0.63 | 30.09 ± 0.77 | 39 ± 1
318.15 K | 2.068 ± 0.048 | 3.192 ± 0.085 | 4.55 ± 0.14 | 6.49 ± 0.21 | 8.54 ± 0.35 | 12.42 ± 0.42 | 16.2 ± 0.45 | 20.22 ± 0.53 | 25.83 ± 0.66 | 32.59 ± 0.85
